Measured values reported in ChEMBL document CHEMBL3045068, “Effect of methomyl and oxamyl soil applications on early control of nematodes and insects” (Pest Manag Sci, 2011).
Converted amounts (≈) assume the structure as drawn.

What was measured:
Pisum sativum [1] = assay: Phytotoxicity in Pisum sativum (pea) assessed as emergence at 3 kg ai/ha applied to soil measured up to 7 days post planting at 19 degC relative to untreated control; format: organism-based; details: lathyrus oleraceus, in vivo, other, 168 h
Phaseolus lunatus [2] = assay: Phytotoxicity in Phaseolus lunatus (lima bean) plant assessed as emergence at 2.56 kg ai/ha applied to soil measured up to 14 days under green house conditions (reference value: 70 +/- 16%); format: organism-based; details: in vivo, other, 336 h
Pisum sativum [3] = assay: Phytotoxicity in Pisum sativum (pea) assessed as plant fresh weight at 4 kg ai/ha applied to soil measured up to 7 days post planting at 27 degC under green house conditions (reference value: 3.9 +/- 0.83 g); format: organism-based; details: lathyrus oleraceus, in vivo, other, 168 h
Meloidogyne incognita [4] = assay: Nematicidal activity against second juvenile stage of Meloidogyne incognita (root-knot nematode) infected lima bean plant assessed as root dry weight at 2 kg ai/ha applied to soil measured up to 7 days post planting under green house conditions (reference value: 0.5 +/- 0.052 g); format: functional
Meloidogyne incognita [5] = assay: Nematicidal activity against second juvenile stage of Meloidogyne incognita (root-knot nematode) infected lima bean plant assessed as root dry weight at 3 kg ai/ha applied to soil measured up to 7 days post planting under green house conditions (reference value: 0.5 +/- 0.052 g); format: functional
Meloidogyne incognita [6] = assay: Nematicidal activity against second juvenile stage of Meloidogyne incognita (root-knot nematode) infected lima bean plant assessed as reduction in root gall index at 2 kg ai/ha applied to soil measured during planting under green house conditions (reference value: 7 +/- 0.27%); format: functional
Pisum sativum [7] = assay: Phytotoxicity in Pisum sativum (pea) assessed as plant fresh weight at 3 kg ai/ha applied to soil measured up to 7 days post planting at 27 degC under green house conditions (reference value: 3.9 +/- 0.83 g); format: organism-based; details: lathyrus oleraceus, in vivo, other, 168 h
Gossypium hirsutum = assay: Phytotoxicity in Gossypium hirsutum (cotton) assessed as concentration required to cause foliar edge burn applied through foliar spray after 3 weeks; format: organism-based; details: in vivo, other, 504 h
Meloidogyne incognita [8] = assay: Nematicidal activity against second juvenile stage of Meloidogyne incognita (root-knot nematode) infected pea plant assessed as emergence at 3 kg ai/ha applied to soil measured up to 14 days post planting under green house conditions (reference value: 75 +/- 13%); format: functional
Spodoptera exigua = assay: Insecticidal activity against Spodoptera exigua infested tomato assessed as mortality applied to soil after 72 hr; format: functional
Pisum sativum [9] = assay: Phytotoxicity in Pisum sativum (pea) assessed as plant fresh weight at 2 kg ai/ha applied to soil measured up to 7 days post planting at 19 degC (reference value: 9.4 +/- 0.54 g); format: organism-based; details: lathyrus oleraceus, in vivo, other, 168 h
Meloidogyne incognita [10] = assay: Nematicidal activity against second juvenile stage of Meloidogyne incognita (root-knot nematode) infected pea plant assessed as root fresh weight at 4 kg ai/ha applied to soil measured up to 14 days post planting under green house conditions (reference value: 1.83 +/- 0.3 g); format: functional
Pisum sativum [11] = assay: Phytotoxicity in Pisum sativum (pea) assessed as plant height at 4 kg ai/ha applied to soil measured up to 7 days post planting at 19 degC (reference value: 6.2 +/- 0.6 cm); format: organism-based; details: lathyrus oleraceus, in vivo, other, 168 h
Meloidogyne incognita [12] = assay: Nematicidal activity against second juvenile stage of Meloidogyne incognita (root-knot nematode) infected pea plant assessed as root fresh weight at 2 kg ai/ha applied to soil measured up to 7 days post planting under green house conditions (reference value: 1.83 +/- 0.3 g); format: functional
Pisum sativum [13] = assay: Phytotoxicity in Pisum sativum (pea) assessed as plant fresh weight at 3 kg ai/ha applied to soil measured up to 7 days post planting at 19 degC (reference value: 9.4 +/- 0.54 g); format: organism-based; details: lathyrus oleraceus, in vivo, other, 168 h
Meloidogyne incognita [14] = assay: Nematicidal activity against second juvenile stage of Meloidogyne incognita (root-knot nematode) infected pea plant assessed as plant fresh weight at 2 kg ai/ha applied to soil measured up to 7 days post planting under green house conditions (reference value: 4.3 +/- 0.56 g); format: functional
Meloidogyne incognita [15] = assay: Nematicidal activity against second juvenile stage of Meloidogyne incognita (root-knot nematode) infected lima bean plant assessed as root dry weight at 3 kg ai/ha applied to soil measured up to 14 days post planting under green house conditions (reference value: 0.5 +/- 0.052 g); format: functional
Aphis gossypii = assay: Insecticidal activity against Aphis gossypii (cotton aphid) infested cotton assessed as mortality applied through foliar spray after 5 days; format: functional
Meloidogyne incognita [16] = assay: Nematicidal activity against second juvenile stage of Meloidogyne incognita (root-knot nematode) infected pea plant assessed as emergence at 2 kg ai/ha applied to soil measured up to 7 days post planting under green house conditions (reference value: 75 +/- 13%); format: functional
Phaseolus lunatus [17] = assay: Phytotoxicity in Phaseolus lunatus (lima bean) root assessed as root dry weight at 1.56 kg ai/ha applied to soil measured up to 7 days under green house conditions (reference value: 0.36 +/- 0.071 g); format: organism-based; details: in vivo, other, 168 h
Pisum sativum [18] = assay: Phytotoxicity in Pisum sativum (pea) assessed as root dry weight at 3 kg ai/ha applied to soil measured up to 7 days post planting at 19 degC (reference value: 2 +/- 0.21 g); format: organism-based; details: lathyrus oleraceus, in vivo, other, 168 h
Phaseolus lunatus [19] = assay: Phytotoxicity in Phaseolus lunatus (lima bean) root assessed as root dry weight at 1.12 kg ai/ha applied to soil under green house conditions (reference value: 0.36 +/- 0.071 g); format: organism-based; details: in vivo, other
Meloidogyne incognita [20] = assay: Nematicidal activity against second juvenile stage of Meloidogyne incognita (root-knot nematode) infected lima bean plant assessed as reduction in root gall index at 4 kg ai/ha applied to soil measured up to 14 days post planting under green house conditions (reference value: 7 +/- 0.27%); format: functional
Bemisia tabaci = assay: Insecticidal activity against second-instar […] stage of Bemisia tabaci (sweet potato whitefly) infested cotton assessed as mortality applied to soil after 6 days; format: functional
Meloidogyne incognita [21] = assay: Nematicidal activity against second juvenile stage of Meloidogyne incognita (root-knot nematode) assessed as mortality after 72 hr; format: functional
Meloidogyne incognita [22] = assay: Nematicidal activity against second juvenile stage of Meloidogyne incognita (root-knot nematode) infected pea plant assessed as emergence at 4 kg ai/ha applied to soil measured up to 7 days post planting under green house conditions (reference value: 75 +/- 13%); format: functional
Pisum sativum [23] = assay: Phytotoxicity in Pisum sativum (pea) assessed as emergence at 4 kg ai/ha applied to soil measured up to 7 days post planting at 27 degC under green house conditions (reference value: 70 +/- 3.3%); format: organism-based; details: lathyrus oleraceus, in vivo, other, 168 h
Phaseolus lunatus [24] = assay: Phytotoxicity in Phaseolus lunatus (lima bean) root assessed as root dry weight at 0.56 kg ai/ha applied to soil under green house conditions (reference value: 0.36 +/- 0.071 g); format: organism-based; details: in vivo, other
Meloidogyne incognita [25] = assay: Nematicidal activity against second juvenile stage of Meloidogyne incognita (root-knot nematode) assessed as mortality after 48 hr; format: functional
Pisum sativum [26] = assay: Phytotoxicity in Pisum sativum (pea) assessed as emergence at 2 kg ai/ha applied to soil measured up to 7 days post planting at 19 degC relative to untreated control; format: organism-based; details: lathyrus oleraceus, in vivo, other, 168 h

CNC(=O)ON=C(C)SC [METHOMYL] gave an Activity (Pisum sativum [1]) of 87%, an Activity (Phaseolus lunatus [2]) of 80% and an Activity (Pisum sativum [3]) of 3.1 g. The Activity (Meloidogyne incognita [4]) was 0.38 g, the Activity (Meloidogyne incognita [5]) was 0.39 g and the Root_galling_index (Meloidogyne incognita [6]) was 0%. For the same molecule, the Activity (Pisum sativum [7]) was 3.3 g, the Activity (Gossypium hirsutum) was 100 µg/mL and the Activity (Meloidogyne incognita [8]) was 63%. It also gave an LC90 (Spodoptera exigua) of 30 µg/mL (≈ 185 µM), an LC50 (Spodoptera exigua; Spodoptera exigua, soil, 72 h) of 18 µg/mL (≈ 111 µM) and an Activity (Pisum sativum [9]) of 11.6 g. The Activity (Meloidogyne incognita [10]) was 1.36 g, the Activity (Pisum sativum [11]) was 6.3 cm and the Activity (Meloidogyne incognita [12]) was 2.04 g. The Activity (Pisum sativum [13]) was 9.4 g, the Activity (Meloidogyne incognita [14]) was 7.1 g and the Activity (Meloidogyne incognita [15]) was 0.38 g. It also gave an LC90 (Aphis gossypii) of 54 µg/mL (≈ 333 µM), an LC50 (Aphis gossypii; Aphis gossypii, foliar, 120 h) of 25 µg/mL (≈ 154 µM) and an Activity (Meloidogyne incognita [16]) of 50%. It also gave an Activity (Phaseolus lunatus [17]) of 0.26 g, an Activity (Pisum sativum [18]) of 2.2 g and an Activity (Phaseolus lunatus [19]) of 0.35 g. For the same molecule, the Root_galling_index (Meloidogyne incognita [20]) was 0%, the LC90 (Bemisia tabaci) was 1119 µg/mL (≈ 6900 µM) and the LC50 (Bemisia tabaci; Bemisia tabaci, soil, 144 h) was 673 µg/mL (≈ 4150 µM). The LC90 (Meloidogyne incognita [21]) was 9.8 µg/mL (≈ 60.4 µM), the LC50 (Meloidogyne incognita [21]; Meloidogyne incognita, Juvenile stage, 72 h) was 3.6 µg/mL (≈ 22.2 µM) and the Activity (Meloidogyne incognita [22]) was 88%. The Activity (Pisum sativum [23]) was 60%, the Activity (Phaseolus lunatus [24]) was 0.35 g and the LC90 (Meloidogyne incognita [25]) was 15.2 µg/mL (≈ 93.7 µM). For the same molecule, the LC50 (Meloidogyne incognita [25]; Meloidogyne incognita, Juvenile stage, 48 h) was 4.9 µg/mL (≈ 30.2 µM) and the Activity (Pisum sativum [26]) was 93%.
